In US10899639B2, “Composition and method for inhibiting microbial adhesion on surfaces” (SOLENIS TECHNOLOGIES, L.P., priority 2017, dated 2021):

System: Biofilms grown on stainless steel 316 coupons
Experiment: biofilm reduction on stainless steel 316 coupons from CDC Biofilm reactor, viable cell plating
Format: cell-based
Details: two hours at 28° C. with shaking
Procedure: Biofilms were grown on stainless steel 316 coupons in a CDC Biofilm reactor using […] minimal salts growth media for a period of twenty-four hours. […] A control was done with […] media. After the biofilms were grown, each coupon from the rods in the CDC reactor was unscrewed and dropped into a well of the plate. The plate was then incubated for two hours at 28° C. with shaking. Following the incubation, the coupons were removed from the wells and placed into 5 mL of phosphate-buffered saline (PBS) and sonicated for six minutes. Viable cells released into the fluid were then determined by a plating method. The results are recorded as the percent reduction in cell counts relative to the control.

sodium dodecylbenzene sulfonate [Biosoft D-40]
percent reduction in cell counts relative to the control (LAS 40 ppm actives): 41.83% | percent reduction in cell counts relative to the control (LAS 100 ppm actives): 81.58%
